# Source: ChEMBL document CHEMBL4354833, “Kinetic Target-Guided Synthesis: Reaching the Age of Maturity” (J Med Chem, 2020)
# Key:
# NAD kinase 1 = target: T1, NAD kinase 1 (Listeria monocytogenes serovar 1/2a (strain ATCC BAA-679 / EGD-e), UniProt Q8Y8D7); assay: Inhibition of Listeria monocytogenes NAD kinase assessed as suppression of reduced NADP formation by yeast glucose-6-phosphate dehydrogenase coupled assay
# T1 sequence (Q8Y8D7 whole entry): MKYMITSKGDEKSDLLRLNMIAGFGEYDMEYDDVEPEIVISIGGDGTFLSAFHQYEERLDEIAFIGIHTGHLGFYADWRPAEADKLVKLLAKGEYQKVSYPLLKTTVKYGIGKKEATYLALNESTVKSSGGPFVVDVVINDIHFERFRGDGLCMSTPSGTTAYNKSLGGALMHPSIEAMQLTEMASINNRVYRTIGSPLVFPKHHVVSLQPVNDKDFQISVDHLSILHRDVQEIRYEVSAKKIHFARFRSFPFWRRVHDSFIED
# Streptococcus pneumoniae = assay: Antimicrobial activity against Streptococcus pneumoniae ATCC 49619; type: functional
# [1] = target: Bacterial 70S ribosome (Bacteria) (UniProt P0A7V0+P60723+P0AG67+P0A7R5+P0A7R9+P0A7S3+P0A7S9+P0AG59+P0ADZ4+P0A7T3+P0AG63+P0A7T7+P0A7U3+P0A7U7+P68679+P0A7V3+P0A7V8+P0A7W1+P02358+P02359+P0A7W7+P0A7X3+P0A7J3+P0A7J7+P0AA10+P0ADY3+P02413+P0ADY7+P0AG44+P0C018+P0A7K6+P0A7L0+P0A7L3+P0AG48+P61175+P0ADZ0+P60624+P68919+P0A7L8+P0A7M2+P0A7M6+P60422+P0AG51+P0A7N1+P0A7M9+P0A7N4+P0A7N9+P0A7P5+P0A7Q1+Q2EEQ2+P0A7Q6+P60438+P62399+P0AG55+P0A7K2); assay: Inhibition of 70S ribosome in Escherichia coli cell free system assessed as reduction in protein synthesis by measuring EmGFP synthesis at 1 uM by cell-free translation inhibition method relative to control; type: subcellular
# Bacterial 70S ribosome = assay: Binding affinity to Escherichia coli 70S ribosome assessed as reduction in BODIPY-Erythromycin A binding incubated for 1 hr by fluorescence polarization assay; type: subcellular
# [2] = target: T2, Signal transducer and activator of transcription 5B (Mus musculus) (UniProt P42232); assay: Inhibition of STAT5b phosphorylation in mouse BaF3/FLT3-ITD cells at 25 uM after 6 hrs by Western blot analysis relative to control; type: cell-based
# T2 sequence (whole entry): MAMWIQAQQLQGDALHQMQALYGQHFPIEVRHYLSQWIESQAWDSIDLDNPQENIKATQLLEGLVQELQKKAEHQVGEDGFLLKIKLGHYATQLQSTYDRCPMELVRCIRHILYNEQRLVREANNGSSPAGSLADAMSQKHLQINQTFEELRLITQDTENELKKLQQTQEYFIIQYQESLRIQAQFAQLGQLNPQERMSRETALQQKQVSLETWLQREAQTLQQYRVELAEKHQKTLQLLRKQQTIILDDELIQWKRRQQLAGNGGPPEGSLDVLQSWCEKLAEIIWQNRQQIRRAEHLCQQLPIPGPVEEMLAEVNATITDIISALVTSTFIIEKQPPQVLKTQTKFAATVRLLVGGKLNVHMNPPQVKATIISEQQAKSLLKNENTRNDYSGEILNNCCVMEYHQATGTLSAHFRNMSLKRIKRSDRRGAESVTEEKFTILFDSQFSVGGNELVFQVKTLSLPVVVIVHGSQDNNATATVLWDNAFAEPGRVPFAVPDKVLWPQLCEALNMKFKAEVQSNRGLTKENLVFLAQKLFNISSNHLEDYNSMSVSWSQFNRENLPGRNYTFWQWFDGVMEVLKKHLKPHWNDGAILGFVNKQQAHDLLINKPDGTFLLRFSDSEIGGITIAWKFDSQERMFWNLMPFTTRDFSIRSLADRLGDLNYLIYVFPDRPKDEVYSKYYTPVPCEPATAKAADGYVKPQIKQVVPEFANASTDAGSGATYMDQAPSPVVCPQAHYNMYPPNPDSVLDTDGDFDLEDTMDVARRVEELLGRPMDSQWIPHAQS
# [3] = target: T3, Signal transducer and activator of transcription 5B (Homo sapiens, UniProt P51692); assay: Binding affinity to MBP-tagged recombinant STAT5b-SH2 domain (unknown origin) using carboxyfluoresceine-labeled phosphotyrosine octapeptide incubated for 12 hrs by fluorescence polarization assay
# T3 sequence (P51692 whole entry): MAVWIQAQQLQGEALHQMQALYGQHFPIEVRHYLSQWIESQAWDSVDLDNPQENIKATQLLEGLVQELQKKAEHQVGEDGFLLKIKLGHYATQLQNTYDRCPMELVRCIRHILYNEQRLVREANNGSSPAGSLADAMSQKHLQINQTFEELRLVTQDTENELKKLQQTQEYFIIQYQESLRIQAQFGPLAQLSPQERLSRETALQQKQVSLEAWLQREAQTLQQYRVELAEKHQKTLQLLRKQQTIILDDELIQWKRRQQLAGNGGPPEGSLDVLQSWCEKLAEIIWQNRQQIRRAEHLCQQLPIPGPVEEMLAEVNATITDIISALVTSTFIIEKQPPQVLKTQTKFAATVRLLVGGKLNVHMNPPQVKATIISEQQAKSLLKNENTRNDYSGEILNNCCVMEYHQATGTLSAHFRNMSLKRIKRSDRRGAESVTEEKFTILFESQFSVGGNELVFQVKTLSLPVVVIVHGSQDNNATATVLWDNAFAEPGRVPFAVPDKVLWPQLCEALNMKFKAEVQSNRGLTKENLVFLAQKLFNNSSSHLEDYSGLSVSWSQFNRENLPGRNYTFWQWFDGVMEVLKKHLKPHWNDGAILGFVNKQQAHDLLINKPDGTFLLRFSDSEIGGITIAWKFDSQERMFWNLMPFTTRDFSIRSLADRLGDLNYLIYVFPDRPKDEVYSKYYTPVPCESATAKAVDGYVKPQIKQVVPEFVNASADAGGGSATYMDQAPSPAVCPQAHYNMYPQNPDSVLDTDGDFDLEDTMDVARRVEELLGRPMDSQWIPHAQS
# [4] = Antitumor activity against mouse BaF3/FLT3-ITD cells implanted in NSG mouse assessed as induction of tumor growth regression at 200 mg/kg, sc QD for 14 days relative to control; type: functional
# [5] = target: T4, Bifunctional ligase/repressor BirA (Staphylococcus aureus, UniProt A0A0E7NXW5); assay: Binding affinity to Staphylococcus aureus biotin protein ligase
# T4 sequence (A0A0E7NXW5 whole entry): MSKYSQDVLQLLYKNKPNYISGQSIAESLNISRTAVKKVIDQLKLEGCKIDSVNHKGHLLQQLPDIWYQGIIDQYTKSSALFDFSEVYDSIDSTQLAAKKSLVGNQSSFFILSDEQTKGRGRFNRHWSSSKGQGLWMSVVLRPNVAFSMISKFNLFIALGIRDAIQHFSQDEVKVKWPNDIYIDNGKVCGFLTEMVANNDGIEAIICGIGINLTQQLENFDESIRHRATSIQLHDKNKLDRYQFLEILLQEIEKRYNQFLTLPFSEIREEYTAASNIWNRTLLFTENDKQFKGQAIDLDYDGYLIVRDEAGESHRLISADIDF
# Coagulation factor X = Coagulation factor X (Homo sapiens, UniProt P00742); assay: Inhibition human FA10a using Boc-LeuGly-Arg-AMC fluorogenic substrate
# [6] = Inhibition of Enterovirus A71 3c protease
# [7] = target: T2, Signal transducer and activator of transcription 5B (Mus musculus); assay: Inhibition of STAT5b in mouse BaF3/FLT3-ITD cells incubated for 6 hrs by CETSA-ITDRF assay; type: cell-based
# [8] = target: T5, Signal transducer and activator of transcription 5B (Homo sapiens) (UniProt P51692); assay: Binding affinity to MBP-tagged recombinant STAT5b-SH2 domain (unknown origin) assessed as change in melting temperature by CETSA method
# T5 sequence (whole entry): T3 sequence (P51692 whole entry)
# Rattus norvegicus = species: Rattus norvegicus; assay: animal or person; details: 3 h
# Description: Antiinflammatory activity in rat model of carrageenan-induced paw edema model after 3 hrs
# Carbonic anhydrase 2 = Carbonic anhydrase 2 (Bos taurus, UniProt P00921); assay: Binding affinity to bovine carbonic anhydrase 2
# [9] = Biodistribution in RBC of SCID mouse measured after 10 mins; type: ADME, organism-based; details: erythrocyte
# [10] = Biodistribution in plasma of SCID mouse measured after 10 mins; type: ADME, organism-based; details: in vivo
# [11] = target: Luciferin 4-monooxygenase (Photinus pyralis, UniProt P08659); assay: Inhibition of Photinus pyralis luciferase using ATP and D-luciferin in presence of Coenzyme A and DL-cysteine by luminescence based assay
# Prothrombin = Prothrombin (Homo sapiens, UniProt P00734); assay: Inhibition of thrombin (unknown origin)
# Sequence of Coagulation factor X (P00742 41-179 limits assumed): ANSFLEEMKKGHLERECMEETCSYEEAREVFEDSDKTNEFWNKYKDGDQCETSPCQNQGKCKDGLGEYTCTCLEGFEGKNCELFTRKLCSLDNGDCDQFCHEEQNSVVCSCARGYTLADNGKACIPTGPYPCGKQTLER
# Sequence of Coagulation factor X (P00742 235-488 limits assumed): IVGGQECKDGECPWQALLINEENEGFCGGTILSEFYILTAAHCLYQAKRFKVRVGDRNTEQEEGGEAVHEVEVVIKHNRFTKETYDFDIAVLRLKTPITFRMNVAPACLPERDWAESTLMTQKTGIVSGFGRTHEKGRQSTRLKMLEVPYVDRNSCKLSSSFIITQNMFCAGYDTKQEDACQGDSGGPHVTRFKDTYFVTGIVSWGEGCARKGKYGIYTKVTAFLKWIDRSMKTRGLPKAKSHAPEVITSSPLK
# Sequence of Carbonic anhydrase 2 (P00921 whole entry): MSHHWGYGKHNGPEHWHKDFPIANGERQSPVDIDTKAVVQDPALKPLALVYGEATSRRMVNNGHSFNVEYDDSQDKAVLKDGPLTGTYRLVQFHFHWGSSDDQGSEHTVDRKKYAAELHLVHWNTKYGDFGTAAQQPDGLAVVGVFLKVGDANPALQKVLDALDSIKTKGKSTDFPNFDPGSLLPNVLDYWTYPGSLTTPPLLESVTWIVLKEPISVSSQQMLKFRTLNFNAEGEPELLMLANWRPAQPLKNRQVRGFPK
# Sequence of Luciferin 4-monooxygenase (P08659 whole entry): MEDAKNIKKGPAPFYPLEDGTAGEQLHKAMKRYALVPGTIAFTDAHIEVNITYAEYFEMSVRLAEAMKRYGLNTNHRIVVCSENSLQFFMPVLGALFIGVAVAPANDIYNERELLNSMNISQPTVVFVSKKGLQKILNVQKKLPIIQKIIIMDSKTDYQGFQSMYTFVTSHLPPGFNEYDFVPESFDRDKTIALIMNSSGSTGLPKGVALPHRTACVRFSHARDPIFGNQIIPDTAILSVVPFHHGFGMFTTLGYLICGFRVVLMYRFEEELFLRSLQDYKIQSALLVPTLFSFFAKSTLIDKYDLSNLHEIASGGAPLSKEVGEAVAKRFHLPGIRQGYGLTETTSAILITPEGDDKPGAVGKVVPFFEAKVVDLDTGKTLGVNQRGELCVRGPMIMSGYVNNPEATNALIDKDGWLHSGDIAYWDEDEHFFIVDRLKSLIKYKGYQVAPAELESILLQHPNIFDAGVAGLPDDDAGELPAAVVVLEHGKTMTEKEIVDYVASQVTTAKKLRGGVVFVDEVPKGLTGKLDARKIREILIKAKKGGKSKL
compound,measurement,setting,value
[N-]=[N+]=NC[C@H]1O[C@@H](n2c(SCC(=O)NC[C@H]3O[C@@H](n4cnc5c(N)ncnc54)[C@H](O)[C@@H]3O)nc3c(N)ncnc32)[C@H](O)[C@@H]1O,Ki,NAD kinase 1,25 µM
CC[C@H]1OC(=O)[C@@](C)(F)C(=O)[C@H](C)[C@@H](O[C@@H]2O[C@H](C)C[C@H](N(C)C)[C@H]2O)[C@](C)(OC)C[C@@H](C)C(=O)[C@H](C)[C@H]2N(CCCCn3cc(-c4cccc(N)c4)nn3)C(=O)O[C@]12C [SOLITHROMYCIN],MIC,Streptococcus pneumoniae,6 ng/mL
same,inhibition,[1],47%
same,Kd,Bacterial 70S ribosome,0.0006 µM
O=C(O)c1nonc1NCn1nnnc1Cc1ccccc1,inhibition,[2],> 50%
same,IC50,[3],2.9 µM
same,Activity,[4],28%
O=C1N[C@H]2[C@H](CS[C@H]2CCCCc2cn(CCCNc3ccc([N+](=O)[O-])c4nonc34)nn2)N1,Ki,[5],1.4 µM
N=C(N)c1ccc(CN)cc1,Ki,Coagulation factor X,680 µM
CCOC(=O)CC[C@H](C[C@@H]1CCCNC1=O)NC(=O)[C@H](Cc1ccccc1)NC(=O)C(O)CC(=O)c1ccncc1 (some centres undefined),IC50,[6],1.43 µM
O=C(O)c1nonc1NCn1nnnc1-c1ccccc1,Ki,[3],> 5000 µM
Cc1cc(C(=O)N[C@@H](Cc2ccc(F)cc2)C(=O)N[C@H](C=O)C[C@@H]2CCCNC2=O)no1,IC50,[6],0.32 µM
O=C(O)c1nonc1NCn1cnnn1,IC50,[3],1.4 µM
same,Occ50,[7],28 µM
same,ΔTm,[8],8 °C
O=C[C@H](C[C@@H]1CCCNC1=O)NC(=O)[C@H](Cc1ccccc1)NC(=O)C(O)CC(=O)c1ccncc1 (some centres undefined),IC50,[6],0.15 µM
O=C(O)c1nonc1NCn1cccn1,Ki,[3],> 5000 µM
O=C(O)c1nonc1NCn1ccnn1,Ki,[3],> 5000 µM
Cc1cc(-n2cc(-c3ccc(F)cc3)nn2)n(-c2ccc(S(C)(=O)=O)cc2)n1,ED50,Rattus norvegicus,0.44 mg/kg
CC[C@H]1OC(=O)[C@@](C)(F)C(=O)[C@H](C)[C@@H](O[C@@H]2O[C@H](C)C[C@H](N(C)C)[C@H]2O)[C@](C)(OC)C[C@@H](C)C(=O)[C@H](C)[C@H]2N(CCCCN=[N+]=[N-])C(=O)O[C@]12C,MIC,Streptococcus pneumoniae,2 ng/mL
same,Kd,Bacterial 70S ribosome,0.0021 µM
CC[C@H]1OC(=O)[C@@](C)(F)C(=O)[C@H](C)[C@@H](O[C@@H]2O[C@H](C)C[C@H](N(C)C)[C@H]2O)[C@](C)(OC)C[C@@H](C)C(=O)[C@H](C)[C@H]2N(CCCCn3cc(-c4cccc(N(C)C)c4)nn3)C(=O)O[C@]12C,MIC,Streptococcus pneumoniae,5 ng/mL
same,inhibition,[1],37%
same,Kd,Bacterial 70S ribosome,0.0014 µM
COC(=O)c1nonc1NCn1nnnc1-c1cccc(OC(F)(F)F)c1,Ki,[3],> 5000 µM
O=C(O)c1nonc1NCn1nnnc1-c1cccc(C(F)(F)F)c1,Ki,[3],> 5000 µM
Cc1cc(-n2cc(-c3ccc(N)cc3)nn2)n(-c2ccc(S(C)(=O)=O)cc2)n1,ED50,Rattus norvegicus,0.12 mg/kg
COC(=O)c1nonc1NCn1cnnn1,IC50,[3],37 µM
CC(C)[C@H](C(=O)NCc1cc([18F])ccn1)n1cc(-c2ccc(S(N)(=O)=O)cc2)nn1,Kd,Carbonic anhydrase 2,0.0005 µM
same,Drug uptake,[9],90%
same,Drug uptake,[10],10%
O=C(O)c1nonc1NCn1cncn1,Ki,[3],> 5000 µM
Nc1ncnc2c1ncn2[C@H]1O[C@@H](COP(=O)(O)OC(=O)c2cccc(-c3noc(-c4ccccc4F)n3)c2)[C@H](O)[C@@H]1O,IC50,[11],0.01 µM
Nc1nonc1C(=O)O,Ki,[3],420 µM
CCOC(=O)/C=C/[C@H](C[C@@H]1CCCNC1=O)NC(=O)[C@H](Cc1ccccc1)NC(=O)C=O,IC50,[6],16.4 µM
O=C(O)c1nonc1NCn1nnc2ccccc21,Ki,[3],> 5000 µM
O=C(O)c1nonc1NCn1nnnc1-c1ccc(F)cc1,Ki,[3],0.6 µM
N=C(N)c1ccc(NC(C(=O)NCc2ccccc2)c2ccccc2)cc1 (centres undefined),Ki,Prothrombin,0.05 µM
O=C(O)c1nonc1NCn1nnnc1-c1cccc(F)c1,Ki,[3],> 5000 µM
